{"source": "paper PMC4438233", "about": "“Antibacterial effects of Traditional Chinese Medicine monomers against Streptococcus pneumoniae via inhibiting pneumococcal histidine kinase (VicK)” (Frontiers in Microbiology, 2015)", "key": {"S. mitis": {"test_system": "S. mitis", "experiment": "MIC against S. mitis", "format": "cell-based", "conditions": "Streptococcus mitis", "experimental": "(§1) Minimum inhibitory concentration (MIC) assays for the antibacterial activities of the compounds were performed according to the standard […] method of the Clinical and Laboratory Standards Institute of America. MIC testing of drug-resistant S. pneumoniae, drug-resistant S. aureus, streptococci and antimicrobial combination was also performed using the same method. Briefly, the drugs were serially diluted 2-fold into eight wells with C+Y medium, yielding final concentrations ranging from […]. Then 10^6 CFU bacteria were added to each well. Inoculated medium containing 1% DMSO served as a bacterial growth control, whereas uninoculated medium served as a sterility control. The plates were incubated at 37°C for 12–16 h. […] The experiment was repeated three times."}, "[1]": {"test_system": "clinical S. pneumoniae 19A (CMCC31689)", "experiment": "Mouse colonization model, serotype 19A", "format": "in vivo, BALB/c mice", "conditions": "for Mean log CFU at site of infection: 19A", "experimental": "(§2) In colonization models, the mice were intranasally challenged by 20 μL of clinical drug-resistant strains (pneumococcal serotype 19F or 19A, 1.5 × 10^8 CFU). An hour later, the mice were intraperitoneally injected with 100 μL drugs (2 × MIC) alone or in combination with PEN (2 × MIC). These injections were continued thrice a day for 3 d. Nasal wash and lung tissues were obtained to analyze the bacteria load at 24, 48, and 72 h after drug infection. Then 100 μL aliquots of the samples diluted were plated on blood agar plates. The colonies were counted after incubation overnight at 37°C with 5% CO2."}, "[2]": {"test_system": "Penicillin-resistant S. pneumoniae strains", "experiment": "Checkerboard test with penicillin against penicillin-resistant S. pneumoniae", "format": "cell-based, Streptococcus pneumoniae", "conditions": "Streptococcus pneumoniae, agent alone", "experimental": "as §1\nThe antimicrobial effects of different combinations of two antimicrobial agents were assayed using the checkerboard test (Bajaksouzian et al., [1997]). Each experiment was repeated thrice. The in vitro interaction between the five drugs with PEN was quantified by the fractional inhibitory concentration (FIC). The FIC index (FICI) was calculated using the following formula:\n(§3) (2) FIC=FICA+FICB=[A]/MICA+[B]/MICB\n(§4) where [A] and [B] are the concentrations of drugs A and B, respectively; MICA and FICA are the MIC and FIC of drug A for the organism, respectively; and MICB, and FICB are the MIC and FIC of drug B for the organism, respectively. The FIC index obtained was interpreted as follows: =0.5, synergy; FIC > 2.0, antagonism (Gupta and Kohli, [2003])."}, "S. pyogenes": {"test_system": "S. pyogenes", "experiment": "MIC against S. pyogenes", "format": "cell-based", "conditions": "Streptococcus pyogenes", "experimental": "as §1"}, "S. pseudopneumoniae": {"test_system": "S. pseudopneumoniae", "experiment": "MIC against S. pseudopneumoniae", "format": "cell-based", "conditions": "Streptococcus pseudopneumoniae", "experimental": "as §1"}, "pneumococcal strains": {"test_system": "pneumococcal strains", "experiment": "MIC against clinical pneumococcal strains (penicillin susceptible, intermediate, resistant)", "format": "cell-based, Streptococcus pneumoniae", "conditions": "for MIC50 / MIC90: Streptococcus pneumoniae", "experimental": "as §1"}, "S. pneumoniae NCTC7466 [3]": {"test_system": "S. pneumoniae NCTC7466", "experiment": "MIC against S. pneumoniae NCTC7466 (D39)", "format": "cell-based", "conditions": "Streptococcus pneumoniae, NCTC7466", "experimental": "as §1"}, "full-length VicK protein": {"target": "T1, full-length VicK protein (Streptococcus pneumoniae, UniProt Q8DPL8)", "T1 construct": "6 His; made in house", "T1 sequence (Q8DPL8 whole entry)": "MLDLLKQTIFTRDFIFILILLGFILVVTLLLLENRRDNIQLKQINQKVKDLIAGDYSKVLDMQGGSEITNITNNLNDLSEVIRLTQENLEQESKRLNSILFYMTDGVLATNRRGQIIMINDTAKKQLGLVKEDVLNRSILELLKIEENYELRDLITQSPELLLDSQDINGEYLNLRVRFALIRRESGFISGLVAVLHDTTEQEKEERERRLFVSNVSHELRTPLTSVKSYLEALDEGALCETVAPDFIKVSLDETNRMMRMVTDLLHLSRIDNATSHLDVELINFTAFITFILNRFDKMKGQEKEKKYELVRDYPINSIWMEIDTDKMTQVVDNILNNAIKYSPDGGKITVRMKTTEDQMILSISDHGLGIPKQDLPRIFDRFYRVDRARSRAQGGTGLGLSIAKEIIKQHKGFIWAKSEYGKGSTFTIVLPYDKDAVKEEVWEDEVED", "experiment": "Inhibition assay for ATPase activity of VicK (Kinase-Glo Luminescent Kinase Assay)", "format": "biochemical", "conditions": "6 μg VicK, 5 μM ATP, read-out: IC50 (inhibition of VicK ATPase activity / autophosphorylation) (converted)", "experimental": "The inhibitory activities of the Chinese medicine monomers for the ATPase activity of the full-length VicK protein were evaluated using the Kinase-Glo™Luminescent Kinase Assay (Promega, Madison, USA). Briefly, 6 μg VicK protein was pre-incubated with a series of dilution of compounds in the reaction buffer at 37°C for 30 min. 5 μM ATP was added and incubated for another 30 min. Kinase-Glo™Reagent was also added to detect the remaining ATP recorded from luminescence measurements (RLU). In parallel, the VicK protein with no addition of compounds was used as a control, and the mixture with compounds excluding the VicK protein served as another control. The rate of protein phosphorylation (Rp) inhibition by the compounds was calculated from Equation (1).\n(1) Rp=1−RLU(compound+ATP+Reagent) −RLU(compound+ATP+vick+Reagent)/RLU(ATP +Reagent)−RLU(ATP+vick+Reagent)×100%\nThe half maximal inhibitory concentration (IC50), which is the concentration of inhibition of 50% VicK protein autophosphorylation, was determined by GraphPad Prism 5 (Qin et al., [2006])."}, "[4]": {"test_system": "clinical S. pneumoniae 19F (CMCC31693)", "experiment": "Mouse colonization model, serotype 19F", "format": "in vivo, BALB/c mice", "conditions": "for Mean log CFU at site of infection: 19F", "experimental": "as §2"}, "S. pneumoniae NCTC7466 [5]": {"test_system": "S. pneumoniae NCTC7466", "experiment": "Mouse sepsis model, survival time", "format": "in vivo, BALB/c mice", "conditions": "i.p. infection 1 × 10^3 CFU; drug i.p. thrice a day for 3 d; untreated control 28.8 ± 1.25", "experimental": "Female BALB/c mice (12–15 per group) aged 4–6 weeks were used to evaluate the antimicrobial effects of the compounds in vivo. In sepsis models, the mice were intraperitoneally infected with 100 μL S. pneumoniae NCTC7466 strain suspension (1 × 10^3 CFU). […] Two control groups were injected with 100 μL 1% DMSO (dissolved the drugs, negative control) or PEN (0.42 mg/kg/d, positive control) following the same injection route. The result was expressed as cumulative survival times following 7 d of observation."}, "[6]": {"test_system": "Methicillin resistant S. aureus", "experiment": "MIC against methicillin resistant S. aureus", "format": "cell-based", "conditions": "Staphylococcus aureus", "experimental": "as §1"}, "S. pneumoniae": {"test_system": "S. pneumoniae", "experiment": "Checkerboard test with erythromycin or tetracycline against S. pneumoniae", "format": "cell-based, Streptococcus pneumoniae", "experimental": "The antimicrobial effects of different combinations of two antimicrobial agents were assayed using the checkerboard test (Bajaksouzian et al., [1997]). Each experiment was repeated thrice. […] The FIC index (FICI) was calculated using the following formula:\nas §3, §4"}, "S. mutans": {"test_system": "S. mutans", "experiment": "MIC against S. mutans", "format": "cell-based", "conditions": "Streptococcus mutans", "experimental": "as §1"}, "[7]": {"conditions": "in combination with Erythromycin"}, "[8]": {"conditions": "in combination with Tetracycline"}}, "note": "Several values for one entry are separate records, joined by “and”; a condition that tells them apart may be missing. Equal values may be shown once. Read-outs that look alike come from different tables or passages of the source. Marks after values point to notes of the source that are not given here."}
{"molecule": "CC(C)=CCCC1=CC(=O)c2c(O)ccc(O)c2C1=O", "note": "[Compound 3, Deoxyshikonin]", "values": [{"measurement": "MIC", "setting": "S. mitis", "result": 125, "unit": "µg/mL"}, {"measurement": "Mean log CFU at site of infection", "setting": "[1]; Lung, 24 h, control 4.85", "result": 1, "unit": "log CFU"}, {"measurement": "Mean log CFU at site of infection", "setting": "[1]; Lung, 48 h, control 6.12", "result": "2.39 (0.0001)^b log CFU"}, {"measurement": "Mean log CFU at site of infection", "setting": "[1]; Lung, 72 h, control 6.29", "result": "1.05 (0.04)^b log CFU"}, {"measurement": "Mean log CFU at site of infection", "setting": "[1]; NW (nasal wash), 24 h, i.p. three times a day for 3 days, control 7.29", "result": "6.08 (0.026)^b log CFU"}, {"measurement": "Mean log CFU at site of infection", "setting": "[1]; NW, 48 h, control 5.97", "result": "2.76 (0.005)^b log CFU"}, {"measurement": "Mean log CFU at site of infection", "setting": "[1]; NW, 72 h, control 6.01", "result": "3 (0.011)^b log CFU"}, {"measurement": "reduction of 19A bacterial numbers", "setting": "[1]; at 24 h", "result": "two-log reduction"}, {"measurement": "MIC", "setting": "[2]; read-out: MIC, Alone, strain 652336", "result": 136, "unit": "µg/mL"}, {"measurement": "MIC", "setting": "[2]; read-out: MIC, Alone, strain 736007", "result": 136, "unit": "µg/mL"}, {"measurement": "MIC", "setting": "[2]; read-out: MIC, Alone, strain 8364981", "result": 136, "unit": "µg/mL"}, {"measurement": "MIC", "setting": "[2]; read-out: MIC, Alone, strain 12092624", "result": 136, "unit": "µg/mL"}, {"measurement": "MIC", "setting": "S. pyogenes", "result": 8.5, "unit": "µg/mL"}, {"measurement": "MIC", "setting": "S. pseudopneumoniae", "result": 136, "unit": "µg/mL"}, {"measurement": "MIC of pneumococcal strains, Range", "setting": "pneumococcal strains; Penicillin intermediate (n = 12)", "result": "34 to 196", "unit": "µg/mL"}, {"measurement": "MIC of pneumococcal strains, MIC50", "setting": "pneumococcal strains; Penicillin resistant (n = 15)", "result": 17, "unit": "µg/mL"}, {"measurement": "MIC of pneumococcal strains, Range", "setting": "pneumococcal strains; Penicillin resistant (n = 15)", "result": "8.5 to 136", "unit": "µg/mL"}, {"measurement": "MIC of pneumococcal strains, Range", "setting": "pneumococcal strains; Penicillin susceptible (n = 7)", "result": "17 to 34", "unit": "µg/mL"}, {"measurement": "MIC50", "setting": "pneumococcal strains; read-out: MIC of pneumococcal strains, MIC50, Penicillin intermediate (n = 12)", "result": 68, "unit": "µg/mL"}, {"measurement": "MIC50", "setting": "pneumococcal strains; read-out: MIC of pneumococcal strains, MIC50, Penicillin resistant (n = 15)", "result": 17, "unit": "µg/mL"}, {"measurement": "MIC50", "setting": "pneumococcal strains; read-out: MIC of pneumococcal strains, MIC50, Penicillin susceptible (n = 7)", "result": 17, "unit": "µg/mL"}, {"measurement": "MIC90", "setting": "pneumococcal strains; read-out: MIC of pneumococcal strains, MIC90, Penicillin intermediate (n = 12)", "result": 196, "unit": "µg/mL"}, {"measurement": "MIC90", "setting": "pneumococcal strains; read-out: MIC of pneumococcal strains, MIC90, Penicillin resistant (n = 15)", "result": 68, "unit": "µg/mL"}, {"measurement": "MIC90", "setting": "pneumococcal strains; read-out: MIC of pneumococcal strains, MIC90, Penicillin susceptible (n = 7)", "result": 34, "unit": "µg/mL"}, {"measurement": "MIC", "setting": "S. pneumoniae NCTC7466 [3]", "result": "17 µg/mL and 62 µM"}, {"measurement": "IC50", "setting": "full-length VicK protein", "result": 15.4, "unit": "µM"}, {"measurement": "IC50", "setting": "full-length VicK protein; value in parentheses", "result": 15.4, "unit": "µM"}, {"measurement": "Mean log CFU at site of infection", "setting": "[4]; Lung, 24 h, control 2.82", "result": "1 (<0.0001)^b log CFU"}, {"measurement": "Mean log CFU at site of infection", "setting": "[4]; Lung, 48 h, control 7.57", "result": "1 (0.001)^b log CFU"}, {"measurement": "Mean log CFU at site of infection", "setting": "[4]; Lung, 72 h, control 4.95", "result": "2.5 (<0.0001)^b log CFU"}, {"measurement": "Mean log CFU at site of infection", "setting": "[4]; NW (nasal wash), 24 h, i.p. three times a day for 3 days, control 6.72", "result": 3.30, "unit": "log CFU"}, {"measurement": "Mean log CFU at site of infection", "setting": "[4]; NW, 48 h, control 6.27", "result": "4.6 (0.0002)^b log CFU"}, {"measurement": "Mean log CFU at site of infection", "setting": "[4]; NW, 72 h, control 7.09", "result": "5.52 (<0.0001)^b log CFU"}, {"measurement": "reduction in 19F bacterial numbers", "setting": "[4]; at 24 h", "result": "one-log reduction"}, {"measurement": "Mean survival of mice ± SEM", "setting": "S. pneumoniae NCTC7466 [5]", "result": "50.6 ± 4.1", "unit": "h"}, {"measurement": "MIC", "setting": "[6]", "result": "34 to 68", "unit": "µg/mL"}, {"measurement": "FICI", "setting": "S. pneumoniae; [7]", "result": 0.37}, {"measurement": "Outcome", "setting": "S. pneumoniae; [7]", "result": "Synergy (=0.5, synergy)"}, {"measurement": "FICI", "setting": "S. pneumoniae; [8]", "result": 0.125}, {"measurement": "Outcome", "setting": "S. pneumoniae; [8]", "result": "Synergy (=0.5, synergy)"}, {"measurement": "MIC", "setting": "S. mutans", "result": 34, "unit": "µg/mL"}]}
